Assay results from patent publication US10745356B2, “Compositions and methods for treating tuberculosis” (priority 2015, dated 2020).
≈ marks a conversion by molar mass, not a printed value.

tested on: M. tuberculosis strains; assay: Minimum Inhibitory Concentration (MIC) against M. tuberculosis strains, resazurin microtiter plate assay; type: cell-based, Mycobacterium tuberculosis; details: Mycobacterium tuberculosis

SMILES | MIC90 [µM]
CNC(=O)c1cc(-c2ccccc2F)c2c(C)c(C3=CCC(CO)CC3)c(C)cc2n1 (stereo not shown) [Compound 91] | 0.6 (≈ 0.251 µg/mL)
CNC(=O)c1cc(-c2ccc(Cl)cc2)c2c(C)c(-c3ccncc3)c(C)cc2n1 [Compound 67] | 40 (≈ 16.1 µg/mL)
Cc1cc2nc(C(=O)NCCF)cc(-c3ccccc3Cl)c2c(C)c1-c1ccncc1 [Compound 31] | 1.25 (≈ 0.542 µg/mL)
Cc1cc2nccc(-c3cccc(Cl)c3)c2c(C)c1-c1ccc(CN2CCOCC2)cc1 [Compound 49] | 0.6 (≈ 0.266 µg/mL)
Cc1cc2nccc(-c3ccccc3C(=O)O)c2c(C)c1-c1ccc(CN2CCOCC2)cc1 [Compound 57] | 40 (≈ 18.1 µg/mL)
Cc1cc2nccc(-c3ccccc3Cl)c2c(C)c1-c1ccc(CN2CCOCC2)cc1 [Compound 48] | 0.3 (≈ 0.133 µg/mL)
CNC(=O)c1cc(-c2cccc(Cl)c2)c2c(C)c(-c3ccncc3)c(C)cc2n1 [Compound 66] | 2.5 (≈ 1 µg/mL)
Cc1cc2nccc(-c3ccc(Cl)cc3)c2c(C)c1-c1ccc(CN2CCOCC2)cc1 [Compound 50] | 80 (≈ 35.4 µg/mL)
Cc1cc2nccc(-c3ccccc3)c2c(C)c1-c1ccc(CN2CCOCC2)cc1 [Compound 47] | 0.45 (≈ 0.184 µg/mL)
Cc1cc2nccc(-c3ccccc3)c2c(C)c1-c1ccnn1C [Compound 76] | 47 (≈ 14.7 µg/mL)
Cc1cc2nccc(-c3ccccc3)c2c(C)c1-c1cnn(C)c1 [Compound 77] | 47 (≈ 14.7 µg/mL)
Cc1cc2nccc(-c3ccccc3)c2c(C)c1-c1ccn(C)n1 [Compound 75] | > 125

same assay, conditions: Mycobacterium tuberculosis, Table 1, C2 SAR with chlorophenyl; Middlebrook 7H9, 37° C. six days, resazurin fluorescence after 48 hours; read-out: MIC90

SMILES | MIC90 [µM]
Cc1cc2nc(C(=O)N3CCOCC3)cc(-c3ccccc3Cl)c2c(C)c1-c1ccncc1 [Compound 32] | 15 (≈ 6.87 µg/mL)
CNc1cc(-c2ccccc2Cl)c2c(C)c(-c3ccncc3)c(C)cc2n1 [Compound 8] | 6 (≈ 2.24 µg/mL)
Cc1cc2nc(C(=O)NC(C)CCO)cc(-c3ccccc3Cl)c2c(C)c1-c1ccncc1 (stereo not shown) [Compound 26] | 1.25 (≈ 0.575 µg/mL)
Cc1cc2nc(CNCCO)cc(-c3ccccc3Cl)c2c(C)c1-c1ccncc1 [Compound 6] | 5 (≈ 2.09 µg/mL)
Cc1cc2nc(C(=O)NC3CCN(C)CC3)cc(-c3ccccc3Cl)c2c(C)c1-c1ccncc1 [Compound 33] | 0.8 (≈ 0.388 µg/mL)
Cc1cc2nc(C(=O)N3CCCC3)cc(-c3ccccc3Cl)c2c(C)c1-c1ccncc1 [Compound 19] | 2.5 (≈ 1.1 µg/mL)
Cc1cc2nc(C(=O)NO)cc(-c3ccccc3Cl)c2c(C)c1-c1ccncc1 [Compound 17] | 10 (≈ 4.04 µg/mL)
Cc1cc2nc(N)cc(-c3ccccc3Cl)c2c(C)c1-c1ccncc1 [Compound 7] | 10 (≈ 3.6 µg/mL)
Cc1cc2nc(C(=O)NCC3CCCS(=O)(=O)C3)cc(-c3ccccc3Cl)c2c(C)c1-c1ccncc1 (stereo not shown) [Compound 21] | 0.8 (≈ 0.427 µg/mL)
Cc1cc2nc(C(=O)N[C@H]3CCCC[C@@H]3O)cc(-c3ccccc3Cl)c2c(C)c1-c1ccncc1 [Compound 23] | 1.25 (≈ 0.608 µg/mL)
Cc1cc2nc(CN(C)C)cc(-c3ccccc3Cl)c2c(C)c1-c1ccncc1 [Compound 5] | 10 (≈ 4.02 µg/mL)
Cc1cc2nc(C(=O)NCCN(C)C)cc(-c3ccccc3Cl)c2c(C)c1-c1ccncc1 [Compound 16] | 0.3 (≈ 0.138 µg/mL)
Cc1cc2nc(C(=O)NCCO)cc(-c3ccccc3Cl)c2c(C)c1-c1ccncc1 [Compound 15] | 0.3 (≈ 0.13 µg/mL)
Cc1cc2nc(C(=O)NCC(C)(C)CO)cc(-c3ccccc3Cl)c2c(C)c1-c1ccncc1 [Compound 35] | 1.6 (≈ 0.758 µg/mL)
Cc1cc2nc(CO)cc(-c3ccccc3Cl)c2c(C)c1-c1ccncc1 [Compound 3] | 3.75 (≈ 1.41 µg/mL)
Cc1cc2nc(C(=O)N(C)C)cc(-c3ccccc3Cl)c2c(C)c1-c1ccncc1 [Compound 29] | 20 (≈ 8.32 µg/mL)
Cc1cc2nc(CCC(=O)N(C)C)cc(-c3ccccc3Cl)c2c(C)c1-c1ccncc1 [Compound 10] | 20 (≈ 8.88 µg/mL)
Cc1cc2nc(C(C)(C)O)cc(-c3ccccc3Cl)c2c(C)c1-c1ccncc1 [Compound 4] | > 40
Cc1cc2nc(C(=O)NC3CC3)cc(-c3ccccc3Cl)c2c(C)c1-c1ccncc1 [Compound 14] | 1.9 (≈ 0.813 µg/mL)
Cc1cc2nc(C(=O)NC(CO)CO)cc(-c3ccccc3Cl)c2c(C)c1-c1ccncc1 [Compound 34] | 1.9 (≈ 0.878 µg/mL)
Cc1cc2nc(C(=O)N3CCNCC3)cc(-c3ccccc3Cl)c2c(C)c1-c1ccncc1 [Compound 30] | 10 (≈ 4.57 µg/mL)
Cc1cc2nccc(-c3ccccc3Cl)c2c(C)c1-c1ccncc1 [Compound 1] | 5 (≈ 1.72 µg/mL)
Cc1cc2nc(C(=O)NCC(N)=O)cc(-c3ccccc3Cl)c2c(C)c1-c1ccncc1 [Compound 27] | 0.8 (≈ 0.356 µg/mL)

same assay, conditions: Mycobacterium tuberculosis, Table 1A, C2 SAR with fluorophenyl; Middlebrook 7H9, 37° C. six days, resazurin fluorescence after 48 hours; read-out: MIC90

SMILES | MIC90 [µM]
Cc1cc2nc(C(=O)NC3CCN(C)C3)cc(-c3ccccc3F)c2c(C)c1-c1ccncc1 (stereo not shown) [Compound 45] | 1.25 (≈ 0.568 µg/mL)
Cc1cc2nc(C(=O)NC3CCN(C)CC3)cc(-c3ccccc3F)c2c(C)c1-c1ccncc1 [Compound 46] | 1.25 (≈ 0.586 µg/mL)
Cc1cc2nc(C(=O)NC[C@@H](O)CO)cc(-c3ccccc3F)c2c(C)c1-c1ccncc1 [Compound 44] | 0.6 (≈ 0.267 µg/mL)
Cc1cc2nc(C(=O)N[C@@H](C)CO)cc(-c3ccccc3F)c2c(C)c1-c1ccncc1 [Compound 40] | 0.3 (≈ 0.129 µg/mL)
CNC(=O)c1cc(-c2ccccc2F)c2c(C)c(-c3ccncc3)c(C)cc2n1 [Compound 37] | 1.25 (≈ 0.482 µg/mL)
Cc1cc2nccc(-c3ccccc3F)c2c(C)c1-c1ccncc1 [Compound 36] | 5 (≈ 1.64 µg/mL)
Cc1cc2nc(C(=O)NCCO)cc(-c3ccccc3F)c2c(C)c1-c1ccncc1 [Compound 38] | 1.6 (≈ 0.665 µg/mL)

same assay, conditions: Mycobacterium tuberculosis, Table 2, C4 SAR; Middlebrook 7H9, 37° C. six days, resazurin fluorescence after 48 hours; read-out: MIC90

SMILES | MIC90 [µM]
Cc1cc2nccc(-c3cncnc3C)c2c(C)c1-c1ccc(CN2CCOCC2)cc1 [Compound 65] | 5 (≈ 2.12 µg/mL)
CCN(CC)Cc1ccccc1-c1ccnc2cc(C)c(-c3ccc(CN4CCOCC4)cc3)c(C)c12 [Compound 54] | 2.5 (≈ 1.23 µg/mL)
Cc1cc2nccc(-c3ccccc3C(N)=O)c2c(C)c1-c1ccc(CN2CCOCC2)cc1 [Compound 56] | 20 (≈ 9.03 µg/mL)
COc1cccc(-c2ccnc3cc(C)c(-c4ccc(CN5CCOCC5)cc4)c(C)c23)c1Cl [Compound 53] | 10 (≈ 4.73 µg/mL)
Cc1cc(-c2ccnc3cc(C)c(-c4ccc(CN5CCOCC5)cc4)c(C)c23)n(C)n1 [Compound 61] | > 40
COc1ccncc1-c1ccnc2cc(C)c(-c3ccc(CN4CCOCC4)cc3)c(C)c12 [Compound 59] | 2.5 (≈ 1.1 µg/mL)
Cc1cc2nccc(-c3cncnc3)c2c(C)c1-c1ccc(CN2CCOCC2)cc1 [Compound 64] | 2.5 (≈ 1.03 µg/mL)
COc1ncccc1-c1ccnc2cc(C)c(-c3ccc(CN4CCOCC4)cc3)c(C)c12 [Compound 60] | 2.5 (≈ 1.1 µg/mL)

same assay, conditions: Mycobacterium tuberculosis, Table 3, C4 SAR; Middlebrook 7H9, 37° C. six days, resazurin fluorescence after 48 hours; read-out: MIC90

SMILES | MIC90 [µM]
CNC(=O)c1cc(-c2ccccc2F)c2c(C)c(-c3ccncc3)c(C)cc2n1 [Compound 37] | 0.6 (≈ 0.231 µg/mL)
CNC(=O)c1cc(N2CCCC2)c2c(C)c(-c3ccncc3)c(C)cc2n1 [Compound 71] | > 50

same assay, conditions: Mycobacterium tuberculosis, Table 4, C6 SAR; Middlebrook 7H9, 37° C. six days, resazurin fluorescence after 48 hours; read-out: MIC90

SMILES | MIC90 [µM]
Cc1cc2nccc(-c3ccccc3)c2c(C)c1-c1cncnc1 [Compound 73] | 40 (≈ 12.5 µg/mL)
Cc1cc2nccc(-c3ccccc3)c2c(C)c1-c1cnco1 [Compound 74] | 31 (≈ 9.31 µg/mL)
Cc1cc2nccc(-c3ccccc3)c2c(C)c1-c1ccncc1 [Compound 72] | 5 (≈ 1.55 µg/mL)

same assay, conditions: Mycobacterium tuberculosis, Table 4A, C6 SAR with amide; Middlebrook 7H9, 37° C. six days, resazurin fluorescence after 48 hours; read-out: MIC90

SMILES | MIC90 [µM]
CNC(=O)c1cc(-c2ccccc2F)c2c(C)c(-c3ccnc(C)c3)c(C)cc2n1 [Compound 84] | 6 (≈ 2.4 µg/mL)
CNC(=O)c1cc(-c2ccccc2F)c2c(C)c(-c3ccncc3)c(C)cc2n1 [Compound 37] | 1.25 (≈ 0.482 µg/mL)
CNC(=O)c1cc(-c2ccccc2F)c2c(C)c(-c3cccnc3)c(C)cc2n1 [Compound 85] | 3 (≈ 1.16 µg/mL)
CNC(=O)c1cc(-c2ccccc2F)c2c(C)c(-c3ccnc(N)c3)c(C)cc2n1 [Compound 83] | 7.5 (≈ 3 µg/mL)
CNC(=O)c1cc(-c2ccccc2F)c2c(C)c(-c3cnc(C(=O)O)nc3)c(C)cc2n1 [Compound 82] | 80 (≈ 34.4 µg/mL)
CNC(=O)c1cc(-c2ccccc2F)c2c(C)c(C3=CCC(C(=O)N4CCOCC4)CC3)c(C)cc2n1 (stereo not shown) [Compound 89] | 1.25 (≈ 0.627 µg/mL)
CNC(=O)c1cc(-c2ccccc2F)c2c(C)c(C3=CCN(S(=O)(=O)N4CCOCC4)CC3)c(C)cc2n1 [Compound 88] | 10 (≈ 5.39 µg/mL)
CNC(=O)c1cc(-c2ccccc2F)c2c(C)c(C3=CCC(CN4CCOCC4)CC3)c(C)cc2n1 (stereo not shown) [Compound 92] | 1.25 (≈ 0.61 µg/mL)
CNC(=O)c1cc(-c2ccccc2F)c2c(C)c(C3=CCN(C(=O)N4CCOCC4)CC3)c(C)cc2n1 [Compound 90] | 5 (≈ 2.51 µg/mL)

same assay, conditions: Mycobacterium tuberculosis, Table 5; Middlebrook 7H9, 37° C. six days, resazurin fluorescence after 48 hours; read-out: MIC90

SMILES | MIC90 [µM]
Cc1cc2nc(C(=O)NS(C)(=O)=O)cc(-c3ccccc3Cl)c2c(C)c1-c1ccncc1 [Compound 94] | 5 (≈ 2.33 µg/mL)
CNC(=O)c1cc(C2=CCCCC2)c2c(C)c(-c3ccncc3)c(C)cc2n1 [Compound 102] | 3 (≈ 1.11 µg/mL)
Cc1cc2nc(C(=O)NCCO)cc(-c3ccccc3)c2c(C)c1-c1ccncc1 [Compound 96] | 0.3 (≈ 0.119 µg/mL)
CNC(=O)c1cc(N2CCN(C)CC2)c2c(C)c(-c3ccncc3)c(C)cc2n1 [Compound 100] | > 50
Cc1cc2nc(C(=O)N[C@@H]3CCC[C@H]3O)cc(-c3ccccc3F)c2c(C)c1-c1ccncc1 [Compound 98] | 0.6 (≈ 0.273 µg/mL)
CNC(=O)c1cc(C2=CCOCC2)c2c(C)c(-c3ccncc3)c(C)cc2n1 [Compound 99] | 12.5 (≈ 4.67 µg/mL)
CNC(=O)c1cc(N2CCNCC2)c2c(C)c(-c3ccncc3)c(C)cc2n1 [Compound 101] | > 50

same assay, conditions: Mycobacterium tuberculosis, Table 6; Middlebrook 7H9, 37° C. six days, resazurin fluorescence after 48 hours; read-out: MIC90

SMILES | MIC90 [µM]
CNC(=O)c1cc(-c2ccnn2C)c2c(C)c(-c3ccncc3)c(C)cc2n1 [Compound 104] | 6 (≈ 2.23 µg/mL)
Cc1cc2nc(C(=O)NCCO)cc(-c3ccnn3C)c2c(C)c1-c1ccncc1 [Compound 107] | 1.6 (≈ 0.642 µg/mL)
Cc1cc2nc(C(=O)N3CCC(N(C)C)C3)cc(-c3ccccc3Cl)c2c(C)c1-c1ccc(CN2CCOCC2)cc1 (stereo not shown) [Compound 103] | 0.8 (≈ 0.467 µg/mL)
Cc1cc2nc(C(=O)N[C@@H]3CNC[C@@H]3F)cc(-c3ccnn3C)c2c(C)c1-c1ccncc1 (racemic) [Compound 105, N-[(3R,4S and 3S,4R)-4-fluoropyrrolidin-3-yl]-5,7-dimethyl-4-(2-methylpyrazol-3-yl)-6-(4-pyridyl)quinoline-2-carboxamide] | 3 (≈ 1.33 µg/mL)

same assay, conditions: Table 4, C6 SAR; Middlebrook 7H9, 37° C. six days, resazurin fluorescence after 48 hours; read-out: MIC90

SMILES | MIC90 [µM]
Cc1cc2nccc(-c3ccccc3)c2c(C)c1-c1ccc(CN2CCOCC2)cc1 [Compound 47] | 0.45 (≈ 0.184 µg/mL)
